# Measured values: paper PMC10975765 (Pharmaceuticals, 2024)
# Read-outs that look alike come from different tables or passages of the source.
# How the values were obtained:
# [1] = tested on: Salmonella typhimurium TA102; conditions: TA102, +S9, positive control
# Experimental: (§1) In brief, Salmonella typhimurium (TA98, TA100, TA102, TA1535, and TA1537) was cultured in a nutrient broth (12 mL) at 37 °C. […] Later, the mixture was added to 2 mL of top agar containing 0.5 mM L-histidine and 0.5 mM D-biotin. The mixture was agitated and poured onto the minimal agar plate and incubated at 37 °C for 48 h. All experiments were conducted in triplicate. The number of revertant colonies per plate was counted. The MR was calculated from the average of the revertant number divided by the average of negative control revertant number.
# [2] = tested on: Salmonella typhimurium TA100
# Experimental: as §1
# [3] = tested on: Salmonella typhimurium TA1535
# Experimental: as §1
# [4] = tested on: Salmonella typhimurium TA98; assay: Bacterial reverse mutation test (Ames test), TA98; conditions: TA98, +S9, positive control
# Experimental: as §1
# [5] = tested on: Salmonella typhimurium TA1537; assay: Bacterial reverse mutation test (Ames test), TA1537
# Experimental: as §1
# [6] = tested on: flies expressing human APP and BACE-1 in the developing eyes; assay: Drosophila eye morphology by scanning electron microscopy; type: in vivo, Drosophila melanogaster; conditions: AD flies, 21 days
# Experimental: All fly stocks were maintained in a standard medium at 25 °C, 60% humidity, and a 12 h/12 h light–dark cycle in constant climate chambers with ICH-compliant light source (BINDER GmbH, Tuttlingen, Germany). […] Flies were cultivated for 21 days at 28 °C, with food changes every three days.
# The external compound eyes were then inspected using JSM-IT510 InTouchScope™ SEM Series (JEOL, Peabody, MA, USA) in a vacuum mode.
# [7] = rat, in vivo; cited from earlier work
# [8] = target: acetylcholinesterase (AChE) (Electrophorus electricus, UniProt O42275); conditions: in combination with donepezil
# Experimental: AChE and BChE inhibition were determined using well-established protocols without modifications. For BACE-1 inhibition, we complied with the manufacturer’s instructions (BACE-1 FRET assay kit, Sigma-Aldrich, St. Louis, MO, USA).
# The half-maximal inhibitory concentration (IC50) against AChE, BChE and BACE-1 were calculated using GraphPad Prism (version 9.0, La Jolla, CA, USA) as follows:(2) Y=Bottom+Top−Bottom/1+10^((logIC50−X) × (HillSlope)), where Y is response, decreasing as X increases, X is log of dose or concentration, Top and Bottom are plateaus in same units as Y, and Hillslope is data slope factor or hill slope, unitless.
# [9] = tested on: isolated rat liver nuclei; conditions: cited from earlier work
# [10] = tested on: transgenic Drosophila model for AD; conditions: cited from earlier work
# AChE = conditions: cited from earlier work; for IC50: read-out: AChE IC50
# β-secretase (BACE-1) = target: T1, β-secretase (BACE-1) (Homo sapiens, UniProt P56817); assay: biochemical; type: biochemical; conditions: for BACE-1 inhibition (%): Figure 4
# T1 construct: purchased Sigma-Aldrich
# [11] = tested on: S. typhimurium TA98 and TA100; conditions: TA98 and TA100, with/without S9 extract; cited from earlier work
# [12] = target: butyrylcholinesterase (BChE) (Equus caballus, UniProt P81908); conditions: for interaction with donepezil to inhibit BChE: in combination with donepezil; for BChE inhibition (%): Figure 3
# BACE-1 = conditions: cited from earlier work
# PC12 cells = conditions: Aβ25–35-induced oxidative stress in PC12 cells; cited from earlier work
# human lymphocytes = conditions: cited from earlier work
# [13] = tested on: V79 Chinese hamster lung cells; conditions: cited from earlier work
# [14] = cited from earlier work
# [15] = sample alone at IC20 (donepezil 0)
# [16] = sample alone at IC30 (donepezil 0)
# butyrylcholinesterase (BChE), sequence (P81908 whole entry): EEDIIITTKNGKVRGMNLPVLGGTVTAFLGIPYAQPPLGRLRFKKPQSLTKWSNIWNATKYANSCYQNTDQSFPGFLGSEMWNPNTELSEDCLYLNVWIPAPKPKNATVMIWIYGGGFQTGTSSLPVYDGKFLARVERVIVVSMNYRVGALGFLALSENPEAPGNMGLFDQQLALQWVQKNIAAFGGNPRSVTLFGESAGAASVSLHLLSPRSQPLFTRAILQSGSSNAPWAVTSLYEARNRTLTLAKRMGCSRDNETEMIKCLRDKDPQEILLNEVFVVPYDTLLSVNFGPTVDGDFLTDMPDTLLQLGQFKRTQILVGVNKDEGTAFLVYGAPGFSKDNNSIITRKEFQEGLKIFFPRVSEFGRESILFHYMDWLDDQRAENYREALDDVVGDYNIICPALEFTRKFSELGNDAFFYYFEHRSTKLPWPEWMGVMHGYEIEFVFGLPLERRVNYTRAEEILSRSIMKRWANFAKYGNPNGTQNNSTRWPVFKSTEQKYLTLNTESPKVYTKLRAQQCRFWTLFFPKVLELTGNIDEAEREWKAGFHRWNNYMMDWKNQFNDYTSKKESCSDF
# T1 sequence (P56817 46-501): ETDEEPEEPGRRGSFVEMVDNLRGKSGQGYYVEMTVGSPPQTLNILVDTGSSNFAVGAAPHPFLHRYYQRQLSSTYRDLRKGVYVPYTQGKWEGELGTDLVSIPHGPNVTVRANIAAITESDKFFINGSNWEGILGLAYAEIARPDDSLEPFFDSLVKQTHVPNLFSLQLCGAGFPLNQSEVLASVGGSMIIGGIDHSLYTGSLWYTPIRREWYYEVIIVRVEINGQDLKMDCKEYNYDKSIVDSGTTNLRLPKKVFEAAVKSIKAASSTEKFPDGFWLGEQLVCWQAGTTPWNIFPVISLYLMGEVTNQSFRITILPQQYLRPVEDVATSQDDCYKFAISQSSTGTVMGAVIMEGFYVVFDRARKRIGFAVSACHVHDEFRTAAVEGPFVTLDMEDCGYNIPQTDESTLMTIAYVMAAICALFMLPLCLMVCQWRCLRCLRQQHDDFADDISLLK
# acetylcholinesterase (AChE), sequence (O42275 24-633): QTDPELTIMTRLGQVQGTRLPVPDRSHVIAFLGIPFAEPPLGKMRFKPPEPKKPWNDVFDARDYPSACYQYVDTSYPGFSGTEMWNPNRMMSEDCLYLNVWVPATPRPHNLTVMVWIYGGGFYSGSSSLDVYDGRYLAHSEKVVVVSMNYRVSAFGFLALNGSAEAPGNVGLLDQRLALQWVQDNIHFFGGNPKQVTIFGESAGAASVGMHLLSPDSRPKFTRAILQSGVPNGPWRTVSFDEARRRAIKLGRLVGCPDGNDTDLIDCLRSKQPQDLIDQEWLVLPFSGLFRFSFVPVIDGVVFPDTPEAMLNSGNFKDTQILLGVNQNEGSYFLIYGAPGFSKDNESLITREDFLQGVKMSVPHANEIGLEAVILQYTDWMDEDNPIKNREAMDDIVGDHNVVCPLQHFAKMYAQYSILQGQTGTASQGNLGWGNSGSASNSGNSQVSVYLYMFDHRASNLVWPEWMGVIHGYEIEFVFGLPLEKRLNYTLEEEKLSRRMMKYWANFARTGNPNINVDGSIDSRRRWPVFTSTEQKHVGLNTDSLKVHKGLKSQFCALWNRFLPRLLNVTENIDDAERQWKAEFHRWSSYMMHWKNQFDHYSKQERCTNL
structure (smiles),measurement,setting,value
"Nc1ccc2cc3ccccc3cc2c1 [2-AA, 2-aminoanthracen]",MR class,[1],(+) ((+): indicates the mutagenicity ratio (MR) is ≥2)
same,Revertant Colonies,[1],960.67 ± 29.07
same,MR (mutagenicity ratio),"[2]; TA100, +S9, positive control",10.04
same,MR class,"[2]; TA100, +S9, positive control",(+) ((+): indicates the mutagenicity ratio (MR) is ≥2)
same,Revertant Colonies,"[2]; TA100, +S9, positive control",876.67 ± 34.21
same,MR (mutagenicity ratio),"[3]; TA1535, +S9, positive control",33.32
same,MR class,"[3]; TA1535, +S9, positive control",(+) ((+): indicates the mutagenicity ratio (MR) is ≥2)
same,Revertant Colonies,"[3]; TA1535, +S9, positive control",349.83 ± 18.89
same,MR (mutagenicity ratio),[4],14.15
same,MR class,[4],(+) ((+): indicates the mutagenicity ratio (MR) is ≥2)
same,Revertant Colonies,[4],1396.00 ± 48.94
same,MR (mutagenicity ratio),"[5]; TA1537, +S9, positive control",20.71
same,MR class,"[5]; TA1537, +S9, positive control",(+) ((+): indicates the mutagenicity ratio (MR) is ≥2)
same,Revertant Colonies,"[5]; TA1537, +S9, positive control",203.67 ± 5.56
"Nc1c2ccccc2nc2ccccc12 [9-AA, 9-aminoacridine]",MR (mutagenicity ratio),"[5]; TA1537, −S9, positive control",86.67
same,MR class,"[5]; TA1537, −S9, positive control",(+) ((+): indicates the mutagenicity ratio (MR) is ≥2)
same,Revertant Colonies,"[5]; TA1537, −S9, positive control",780.00 ± 24.11
"COc1cc2c(cc1OC)C(=O)C(CC1CCN(Cc3ccccc3)CC1)C2 (stereo not shown) [Donepezil, donepezil]","eye morphology (retina degeneration, ommatidia and bristles)",[6]; donepezil 2.5 µM,did not reverse retina degeneration
same,"eye morphology (retina degeneration, ommatidia and bristles)",[6]; donepezil 5 µM,did not reverse retina degeneration
same,"eye morphology (retina degeneration, ommatidia and bristles)",[6]; donepezil 10 µM,eye phenotypes roughly similar to the negative control
"O=c1c(O)c(-c2ccc(O)cc2)oc2cc(O)cc(O)c12 [Kaempferol, kaempferol]",tumor induction,[7],did not significantly induce tumors
same,interaction with donepezil to inhibit AChE,[8],slightly antagonized
same,nuclear DNA damages and lipid peroxidation,[9],induced nuclear DNA damages and lipid peroxidation
same,"memory loss, climbing ability and AChE activity",[10],delayed memory loss by maintaining climbing ability and reducing AChE activity
same,mode of AChE inhibition,AChE,reversible mixed mode
same,IC50,AChE,12.4 µM
same,interaction with donepezil on BACE-1,β-secretase (BACE-1); in combination with donepezil,slightly antagonistically
same,IC50,β-secretase (BACE-1); read-out: Half-Maximal Inhibitory Concentration (IC50) BACE-1 (converted),299 µM
same,BACE-1 inhibition (%),β-secretase (BACE-1); [15],16%
same,BACE-1 inhibition (%),β-secretase (BACE-1); [16],29%
same,genotoxicity in S. typhimurium,[11],genotoxicity exclusively when the S9 extract was present
same,interaction with donepezil to inhibit BChE,[12],slight synergism
same,BChE inhibition (%),[12]; [15],22%
same,BChE inhibition (%),[12]; [16],29%
"[N-]=[N+]=[N-].[Na+] [NaN3, sodium azide]",MR (mutagenicity ratio),"[2]; TA100, −S9, positive control",17.14
same,MR class,"[2]; TA100, −S9, positive control",(+) ((+): indicates the mutagenicity ratio (MR) is ≥2)
same,Revertant Colonies,"[2]; TA100, −S9, positive control",1145.33 ± 52.03
same,MR (mutagenicity ratio),"[3]; TA1535, −S9, positive control",18.90
same,MR class,"[3]; TA1535, −S9, positive control",(+) ((+): indicates the mutagenicity ratio (MR) is ≥2)
same,Revertant Colonies,"[3]; TA1535, −S9, positive control",214.17 ± 9.51
"O=c1c(O)c(-c2ccc(O)c(O)c2)oc2cc(O)cc(O)c12 [Quercetin, quercetin]",IC50,BACE-1,[…]
same,neuroprotective effects,PC12 cells,demonstrated neuroprotective effects
same,tumor induction,[7],did not significantly induce tumors
same,micronuclei induction,human lymphocytes,induced micronuclei
same,interaction with donepezil to inhibit AChE,[8],slightly antagonized
same,micronuclei induction,[13],induced micronuclei
same,BACE-1 inhibition (%),β-secretase (BACE-1); [15],22%
same,BACE-1 inhibition (%),β-secretase (BACE-1); [16],33%
same,genotoxicity in S. typhimurium,[11],genotoxicity in the bacterial strains both with and without the S9 extract
same,interaction with donepezil to inhibit BChE,[12],slight synergism
same,BChE inhibition (%),[12]; [15],20%
same,BChE inhibition (%),[12]; [16],32%
O=C(/C=C/c1ccc(O)c(O)c1)O[C@H](Cc1ccc(O)c(O)c1)C(=O)O [rosmarinic acid],crossing of the BBB,[14],reported to cross the BBB
